# Source: US20100255045A1, “COMPOSITION FOR PHOTODYNAMIC SKIN TREATMENT” (priority 2007, published 2010)
# Columns and labels:
# skin = assay: Applicant's studies of chlorophyllin combined with aminolevulinic acid
# Water-solubility = assay type: physicochemical; conditions: compared with chlorophyll
substance,measurement,setting,value
chlorophyllin,effectiveness of aminolevulinic acid,skin,promoting the effectiveness
same,protective role against side effects of aminolevulinic acid (erythema),skin,preventing in particular the appearance of erythema
same,water-solubility,Water-solubility,good water-solubility
